Test results from patent publication US20140220477A1, “Polymers, substrates, methods for making such, and devices comprising the same” (Avertica, Inc., priority 2013, published 2014).
Structures can show the parent of a compound that is named as a salt.

Target: T1, mushroom tyrosinase (polyphenol oxidase) Sigma T3824 (Agaricus bisporus, UniProt C7FF04)
T1 construct: purchased Sigma T3824
Assay: Testing of polymer production in enzymatic tyrosinase (polyphenol oxidase) reaction
Format: biochemical
Parameters: key: +++: Reacted within about 1 hour; ++: reacted within about 3 hours; +: reacted within about 24 hours; +/−: inconclusive results; −: no reaction
Procedure: All reactions were carried out in approximately 50 mM potassium phosphate buffer, pH 6.5 with approximately 5 mM substrate and mushroom tyrosinase (polyphenol oxidase) Sigma T3824 in an amount of 100 to 10,000 units. Reaction volumes varied from 200 μl to 2 ml. In cases where substrates were not completely solubilized, then a saturated solution was used as the limit of solubility. In some cases, a solution of DMSO was used to increase solubility of the substrates. The enzyme was tested and shown to retain activity up to 50% DMSO. The reactions were observed over a 24 hour period for the production of polymers, and the presence and color of polymer and solution was recorded.
The production of polymers in each reaction was visible as a precipitate in the well of a 96 well plate or in the reaction mixture on a glass slide.

[1] = as above, marked substrate(s) dissolved in 20% DMSO
[2] = approx. 50 mM potassium phosphate buffer pH 6.5, approx. 5 mM substrate, 100 to 10,000 units enzyme, observed over 24 hours

T1 sequence (C7FF04 1-392 limits assumed): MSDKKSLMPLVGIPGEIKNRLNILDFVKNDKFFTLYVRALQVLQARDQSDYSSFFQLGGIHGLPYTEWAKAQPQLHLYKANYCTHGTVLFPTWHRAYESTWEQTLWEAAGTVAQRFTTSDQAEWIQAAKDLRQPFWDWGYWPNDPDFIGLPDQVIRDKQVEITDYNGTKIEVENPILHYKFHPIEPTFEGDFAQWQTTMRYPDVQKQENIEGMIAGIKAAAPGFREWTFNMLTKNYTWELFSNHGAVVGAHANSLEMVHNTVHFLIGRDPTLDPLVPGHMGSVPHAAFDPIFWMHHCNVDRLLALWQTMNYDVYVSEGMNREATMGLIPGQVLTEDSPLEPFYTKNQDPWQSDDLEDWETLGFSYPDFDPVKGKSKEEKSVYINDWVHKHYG

Row | Result (polymer production in tyrosinase reaction) [1] | Result (polymer production in tyrosinase reaction) [2] | SMILES
1 | + (reacted within about 24 hours) |  | Oc1ccc(-c2cc(-c3ccc(O)cc3)cc(-c3ccc(O)cc3)c2)cc1 [1,3,5 Tris(4hydroxyphenyl)benzene]
2 | − |  | Oc1ccc2c(c1)[nH]c1ccccc12 [2 Hydroxy carbazole]
3 |  | + (reacted within about 24 hours) | Oc1ccc2cc(O)ccc2c1 [2,6 dihydroxnaphthalene]
4 |  | +++ (Reacted within about 1 hour) | Oc1ccc2[nH]ccc2c1 [5-hydroxyindole]
5 |  | ++ (reacted within about 3 hours) | Oc1ccc2cc[nH]c2c1 [6 Hydroxyindole]
6 |  | ++ (reacted within about 3 hours) | CN[C@@H](Cc1ccc(O)cc1)C(=O)O [N-methyl tyrosine]
7 |  | ++ (reacted within about 3 hours) | N[C@@H](Cc1ccc(O)cc1)C(=O)O [Tyrosine]

Row | SMILES | Result (polymer production in tyrosinase reaction) [1] | Result (polymer production in tyrosinase reaction) [2]
8 | Cl.NCCc1ccccc1 [Beta phenylethylamine HCL] |  | +/−
9 | CC1=NCCc2c1[nH]c1cc(O)ccc21 [Harmalol HCl dehydrate] | − | 
10 | c1ccc2[nH]ccc2c1 [Indole] |  | −
11 | Cl.NCCc1ccc(O)cc1 [Tyramine HCl] |  | +++ (Reacted within about 1 hour)
12 | NCCc1ccc(O)cc1 [Tyramine] |  | +++ (Reacted within about 1 hour)
